This is an account of results in US7906522B2, “2-aminoquinazoline derivatives” (Kyowa Hakko Kirin Co., Ltd, priority 2005, dated 2011).

For one series, the target named is T1, Activated human p38α (Homo sapiens, UniProt Q16539).
T1 construct: purchased Upstate Biotechnology Inc. 14-251
In words: p38MAP kinase inhibition test. It counts as biochemical. To be noted: at a concentration of 1 μmol/L; substrate myelin basic protein, ATP 20 μmol/L, [γ-32P]ATP; read-out: enzyme inhibitory activity. The essentials: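 Radiometric kinase assay with myelin basic protein (20 μg/assay) as substrate, 20 μmol/L ATP plus [γ-32P]ATP, MOPS pH 7.2 with MgCl2 18.75 mmol/L. Reaction run 15 min at 30° C., stopped with phosphoric acid; 32P-MBP captured on phosphocellulose and counted by scintillation.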

T1 sequence (Q16539 whole entry): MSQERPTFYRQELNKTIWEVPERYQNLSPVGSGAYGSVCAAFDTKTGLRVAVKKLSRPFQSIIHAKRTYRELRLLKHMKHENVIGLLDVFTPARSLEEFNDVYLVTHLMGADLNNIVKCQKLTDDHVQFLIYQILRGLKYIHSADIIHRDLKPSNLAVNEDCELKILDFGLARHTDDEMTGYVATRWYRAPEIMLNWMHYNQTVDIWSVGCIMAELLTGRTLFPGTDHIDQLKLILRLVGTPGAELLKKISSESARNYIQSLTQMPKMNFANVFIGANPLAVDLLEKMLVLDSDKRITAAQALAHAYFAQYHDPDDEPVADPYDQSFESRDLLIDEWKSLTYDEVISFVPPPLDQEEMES

One may read the melting point as the temperature of the solid-liquid transition. Compound `CC(C)Nc1ncc2cc(-c3cccc(NC(=O)c4ccnc(N5CCCC5)c4)c3)c(O)cc2n1` [Compound 336, 7-Hydroxy-2-isopropylamino-6-{3-[2-(pyrrolidin-1-yl)pyridin-4-ylcarbonylamino]phenyl}quinazoline] gave a melting point of 248 to 249 °C. In addition, the inhibition at 1 µM on Activated human p38α is no less than 50%.
As for `CCC(CC)Nc1ncc2cc(-c3cccc(NC(=O)c4ccnc(N5CCOCC5)c4)c3)c(O)cc2n1` [Compound 368, 2-(3-Pentylamino)-7-hydroxy-6-{3-[(2-morpholinopyridin-4-yl)carbonylamino]phenyl}quinazoline], the melting point is 154 to 155 °C. For the same compound, at Activated human p38α, the inhibition at 1 µM was no less than 50%.
`CC(C)Nc1ncc2cc(-c3cccc(NC(=O)c4ccnc(N5CCOCC5)c4)c3)c(O)cc2n1` [Compound 290, 7-Hydroxy-2-isopropylamino-6-{3-[(2-morpholinopyridin-4-yl)carbonylamino]phenyl}quinazoline] showed a melting point of 258 °C. For the same compound, at Activated human p38α, the inhibition at 1 µM was no less than 50%.
The corresponding values for `CC[C@H](C)Nc1ncc2cc(-c3cccc(NC(=O)c4ccnc(N5CCOCC5)c4)c3)c(O)cc2n1` [Compound 363, (S)-2-(sec-butylamino)-7-hydroxy-6-{3-[(2-morpholinopyridin-4-yl)carbonylamino]phenyl}quinazoline] are 183 to 184 °C and no less than 50%.
The corresponding values for `CC(C)Nc1ncc2cc(-c3cccc(C(=O)Nc4cccc(N5CCOCC5)c4)c3)c(O)cc2n1` [Compound 328, 7-Hydroxy-2-isopropylamino-6-{3-[(3-morpholinophenyl)carbamoyl]phenyl}quinazoline] are 248 to 249 °C and no less than 50%.
The corresponding values for `CC(C)Nc1ncc2cc(-c3cccc(C(=O)Nc4cccc(N5CCCC5)c4)c3)c(O)cc2n1` [Compound 330, 7-Hydroxy-2-isopropylamino-6-{3-[3-(pyrrolidin-1-yl)phenylcarbamoyl]phenyl}quinazoline] are 251 to 253 °C and no less than 50%.
